# In patent publication US20250171432A1, “COMPOUNDS AND METHODS OF USE” (Tango Therapeutics, Inc., priority 2022, published 2025):
# Experiments:
# Type in all cases: cell-based
# [1] = test system: SDMA (PRMT5 activity) in HAP1 MTAP-intact cell line; test: SDMA in-cell western assay, HAP1 MTAP-intact; details: SDMA in-cell western, HAP1 MTAP-intact cells, 24 hours compound incubation
# Method: (§1) The SAM-cooperative PRMT5 inhibitor, GSK3326595, was sourced from SelleckChem and maintained as a 10 mM DMSO stock. All test compounds are maintained as 10 mM DMSO stocks
# (§2) On Day 0, MTAP-intact or MTAP-deleted cells are seeded in a 384-well plate, and incubated in a humidified, 5% CO2 tissue culture incubator for 16-24 hours. On Day 1, the test compounds are dispensed to wells at defined concentrations using a Tecan D300e digital dispenser (n=4), and the volume of DMSO is normalized to highest class volume. Each plate includes wells dosed with defined concentrations of GSK33226595 as a plate control. The compounds are incubated with cells for 24 hours in a humidified, 5% CO2 tissue culture incubator.
# (§3) On Day 2, the compound-treated cells are fixed with a final concentration of 4% formaldehyde. The cells are then washed/permeabilized with 1×PBS+0.1% Triton X-100, and then blocked with 5% goat serum/1×TBS.
# (§4) The cells are washed with 1×PBS+0.1% Triton X-100, and then washed again with ddH20. The plates are then imaged using a NIR fluorescent imager (LiCor Odyssey).
# (§5) For data analysis, the SDMA signal is normalized to the DRAQ5 signal. Assay background is determined by the signal from wells treated with 1 μM GSK3326595, and subtracted from every well. The data are plotted as % of the DMSO control wells for the MTAP-intact and the MTAP-deleted cell lines independently, and fitted to the 4-parameter logistic (4-PL) Hill equation with maximal effect constrained to 0. The fit was performed using GraphPad Prism or the default IC50 fitting procedure in Dotmatics Studies 5.4 as part of a customized data analysis protocol.
# [2] = test system: SDMA (PRMT5 activity) in HAP1 MTAP-deleted cell line; test: SDMA in-cell western assay, HAP1 MTAP-deleted; details: for IC50 / IC90: SDMA in-cell western, HAP1 MTAP-deleted cells, 24 hours compound incubation; for Hap1 MTAP intact/deleted ratio: ratio of SDMA IC50 in HAP1 MTAP-intact to HAP1 MTAP-deleted cell line
# Method: as §1, §2, §3, §4, §5
# [3] = test system: HAP1 MTAP-deleted cell line; test: Viability assay (CellTiter-Glo), HAP1 MTAP-deleted; details: HAP1 MTAP-deleted cells, 7 days
# Method: All test compounds are maintained as 10 mM DMSO stocks.
# On Day 0, MTAP-intact and MTAP-deleted cells are seeded in a 96-well plate, and incubated in a humidified, 5 or 10% CO2 tissue culture incubator for 16-24 hours. On Day 1, the test compounds are dispensed to wells at defined concentrations using a Tecan D300e digital dispenser (n=3), and the volume of DMSO is normalized to highest class volume (0.2%). The compound-treated plates are incubated for 7 days in a humidified, 5 or 10% CO2 tissue culture incubator.
# On Day 7, the plates are removed from the tissue culture incubator and allowed to equilibrate to room temperature. Then either a ½% volume CellTiter-Glo Luminescent Cell Viability Assay reagent (Promega G7572) is added to each well, or the media is removed from every well and a 1:3 dilution of CellTiter-Glo 2.0 Cell Viability Assay reagent (Promega G9241) in 1×PBS is added. Ten minutes after addition, the luminescent signal is detected by an Envision plate reader. The data are plotted as % of the DMSO control wells for the MTAP-intact and the MTAP-deleted cell lines independently, and fitted to the 4-parameter logistic (4-PL) Hill equation with maximal effect constrained to 0. The fit was performed using GraphPad Prism or the default IC50 fitting procedure in Dotmatics Studies 5.4 as part of a customized data analysis protocol.
Structure (SMILES),"IC50 ([1]; Homo sapiens, HAP1, 24 h)",IC50 ([2]; Homo sapiens),IC90 ([2]; Homo sapiens),IC50 [1],IC50 [2],IC90 [2],Hap1 MTAP intact/deleted ratio [2],"IC50 ([3]; Homo sapiens, 168 h)",IC50 [3]
"CCc1cc(NC(=O)C(=O)N2C[C@@H](C)CC[C@@H]2c2ccc3sc(CC(C)N4CCCC4)nc3c2)cnc1N (mixture of isomers) [Compound 116, N-(6-amino-5-ethylpyridin-3-yl)-2-((2R,5S)-5-methyl-2-(2-(2-(pyrrolidin-1-yl)propyl)benzo[d]thiazol-5-yl)piperidin-1-yl)-2-oxoacetamide]",> 50 nM,< 5 nM,< 75 nM,–,–,–,A (“A” indicates an IC50 ratio greater than or equal to 30 fold),< 100 nM,–
"CCc1cc(NC(=O)C(=O)N2C[C@@H](C)CC[C@@H]2c2ccc3sc(C4CN(C)CC(=O)N4C)nc3c2)cnc1N (mixture of isomers) [Compound 125, N-(6-amino-5-ethylpyridin-3-yl)-2-((2R,5S)-2-(2-(1,4-dimethyl-6-oxopiperazin-2-yl)benzo[d]thiazol-5-yl)-5-methylpiperidin-1-yl)-2-oxoacetamide]",> 50 nM,5 to 50 nM,75 to 125 nM,–,–,–,B (“B” indicates an IC50 ratio greater than or equal to 15 fold but lower than 30 fold),< 100 nM,–
"CCc1cc(NC(=O)C(=O)N2C[C@@H](C)CC[C@@H]2c2ccc3cn([C@@H]4C[C@@H](C)CN(C)C4)nc3c2)cnc1N (relative stereo) [Compound 60, N-(6-amino-5-ethylpyridin-3-yl)-2-((2R,5S)-2-(2-(1,5-dimethylpiperidin-3-yl)-2H-indazol-6-yl)-5-methylpiperidin-1-yl)-2-oxoacetamide]",> 50 nM,< 5 nM,< 75 nM,–,–,–,A (“A” indicates an IC50 ratio greater than or equal to 30 fold),< 100 nM,–
"CCc1cc(NC(=O)C(=O)N2C[C@@H](C)CC[C@@H]2c2cccc(OCC3CCCN3C)c2)cnc1N (relative stereo) [Compound 69, N-(6-amino-5-ethyl-3-pyridyl)-2-oxo-2-[(2R,5S)-5-methyl-2-[3-[[rel-(2R)-1-methylpyrrolidin-2-yl]methoxy]phenyl]-1-piperidyl]acetamide]",> 50 nM,< 5 nM,< 75 nM,–,–,–,A (“A” indicates an IC50 ratio greater than or equal to 30 fold),< 100 nM,–
"CCc1cc(NC(=O)C(=O)N2C[C@@H](C)CC[C@@H]2c2ccc3cn([C@H]4C[C@H](C)CN(C)C4)nc3c2)cnc1N (relative stereo) [Compound 85, N-(6-amino-5-ethylpyridin-3-yl)-2-((2R,5S)-2-(2-(1,5-dimethylpiperidin-3-yl)-2H-indazol-6-yl)-5-methylpiperidin-1-yl)-2-oxoacetamide]",> 50 nM,< 5 nM,< 75 nM,–,–,–,A (“A” indicates an IC50 ratio greater than or equal to 30 fold),< 100 nM,–
"CCc1cc(NC(=O)C(=O)N2C[C@@H](C)CC[C@@H]2c2ccc3sc(C(C)CN4CCCC4)nc3c2)cnc1N (single isomer, unassigned) [Compound 2]",5 to 50 nM,< 5 nM,< 75 nM,–,–,–,B (“B” indicates an IC50 ratio greater than or equal to 15 fold but lower than 30 fold),< 100 nM,–

# More lines, main results first:
"IC50 ([1]; Homo sapiens, HAP1, 24 h)",IC50 ([2]; Homo sapiens),IC90 ([2]; Homo sapiens),IC50 [1],IC50 [2],IC90 [2],Structure (SMILES),Hap1 MTAP intact/deleted ratio [2],"IC50 ([3]; Homo sapiens, 168 h)",IC50 [3]
> 50 nM,< 5 nM,< 75 nM,–,–,–,"COc1ncc(NC(=O)C(=O)N2C[C@@H](C)CC[C@@H]2c2ccc3sc(C4CCN(C)C4(C)C)nc3c2)cc1C(N)=O (mixture of isomers) [Compound 87, 2-methoxy-5-(2-((2R,5S)-5-methyl-2-(2-(rac-(S)-1,2,2-trimethylpyrrolidin-3-yl)benzo[d]thiazol-5-yl)piperidin-1-yl)-2-oxoacetamido)nicotinamide]",A (“A” indicates an IC50 ratio greater than or equal to 30 fold),< 100 nM,–
> 50 nM,5 to 50 nM,< 75 nM,–,–,–,"CCc1cc(NC(=O)C(=O)N2C[C@@H](C)CC[C@@H]2c2ccc3cn([C@H]4CCOC4)nc3c2)cnc1N (racemic) [Compound 93, N-(6-amino-5-ethyl-3-pyridyl)-2-oxo-2-[rac-(2R,5S)-5-methyl-2-(2-tetrahydrofuran-3-ylindazol-6-yl)-1-piperidyl]acetamide]",A (“A” indicates an IC50 ratio greater than or equal to 30 fold),< 100 nM,–
> 50 nM,< 5 nM,< 75 nM,–,–,–,"COc1ncc(NC(=O)C(=O)N2C[C@@H](C)CC[C@@H]2c2ccc3sc([C@@H]4C[C@@H](C)CN(C)C4)nc3c2)cc1C(N)=O (racemic) [Compound 94, 5-(2-((2R,5S)-2-(2-(1,5-dimethylpiperidin-3-yl)benzo[d]thiazol-5-yl)-5-methylpiperidin-1-yl)-2-oxoacetamido)-2-methoxynicotinamide]",A (“A” indicates an IC50 ratio greater than or equal to 30 fold),< 100 nM,–
> 50 nM,5 to 50 nM,75 to 125 nM,–,–,–,"COc1ncc(NC(=O)C(=O)N2C[C@@H](C)CC[C@@H]2c2ccc3cn([C@H]4CCOC4)nc3c2)cc1C(N)=O (racemic) [Compound 97, 2-methoxy-5-[[2-oxo-2-[rac-(2R,5S)-5-methyl-2-(2-tetrahydrofuran-3-ylindazol-6-yl)-1-piperidyl]acetyl]amino]pyridine-3-carboxamide]",A (“A” indicates an IC50 ratio greater than or equal to 30 fold),100 to 1000 nM,–
5 to 50 nM,< 5 nM,< 75 nM,–,–,–,"CCc1cc(NC(=O)C(=O)N2C[C@@H](C)CC[C@@H]2c2ccc3sc([C@@H]4C[C@@H](C)CN(C)C4)nc3c2)cnc1N (racemic) [Compound 118, N-(6-amino-5-ethylpyridin-3-yl)-2-((2R,5S)-2-(2-(1,5-dimethylpiperidin-3-yl)benzo[d]thiazol-5-yl)-5-methylpiperidin-1-yl)-2-oxoacetamide]",C (“C” indicates an IC50 ratio of less than 15 fold),< 100 nM,–
> 50 nM,< 5 nM,< 75 nM,–,–,–,"COc1ncc(NC(=O)C(=O)N2C[C@@H](C)CC[C@@H]2c2ccc3sc([C@@H]4CCN(C)C[C@@H]4C)nc3c2)cc1C(N)=O (relative stereo) [Compound 12, 2-methoxy-5-[[2-oxo-2-[(2R,5S)-5-methyl-2-[2-[rel-(3R,4R)-1,3-dimethyl-4-piperidyl]-1,3-benzothiazol-5-yl]-1-piperidyl]acetyl]amino]pyridine-3-carboxamide]",A (“A” indicates an IC50 ratio greater than or equal to 30 fold),< 100 nM,–
5 to 50 nM,< 5 nM,< 75 nM,–,–,–,"CCc1cc(NC(=O)C(=O)N2C[C@@H](C)CC[C@@H]2c2ccc3sc([C@@H]4C[C@@H](C)CN(C)C4)nc3c2)cnc1N (relative stereo) [Compound 23, N-(6-amino-5-ethylpyridin-3-yl)-2-((2R,5S)-2-(2-(1,5-dimethylpiperidin-3-yl)benzo[d]thiazol-5-yl)-5-methylpiperidin-1-yl)-2-oxoacetamide]",B (“B” indicates an IC50 ratio greater than or equal to 15 fold but lower than 30 fold),< 100 nM,–
–,–,–,5 to 50 nM,< 5 nM,< 75 nM,"C[C@H]1CC[C@H](c2ccc3sc(C4CCN(C)C(C)(C)C4)nc3c2)N(C(=O)C(=O)Nc2cnc(N)c(C3COC3)c2)C1 (single isomer, unassigned) [Compound 1]",C (“C” indicates an IC50 ratio of less than 15 fold),–,< 100 nM
